Reference: ChEMBL document CHEMBL1201862, “PubChem BioAssay data set” (2004)
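Results reflect a 48-hour exposure of cells in 96-well plates to compound at five concentrations. GI50 is the concentration that inhibits growth by half.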 Activity calls are given as the source filed them. Rule as the data show it: active = GI50 up to about 1.1 µM and inactive = higher.

Key:
Test in all cases: NCI anticancer screen, dose series, 48 h
786-0 = tested on: 786-0
A498 = tested on: A498
DU-145 = tested on: DU-145
HCC 2998 = tested on: HCC 2998
HCT-15 = tested on: HCT-15
HL-60 = tested on: HL-60
HOP-62 = tested on: HOP-62
K562 = tested on: K562
KM12 = tested on: KM12
MDA-MB-231 = tested on: MDA-MB-231
MDA-MB-435 = tested on: MDA-MB-435
NCI-H522 = tested on: NCI-H522
OVCAR-4 = tested on: OVCAR-4
OVCAR-5 = tested on: OVCAR-5
PC-3 = tested on: PC-3
SK-MEL-28 = tested on: SK-MEL-28
SK-MEL-2 = tested on: SK-MEL-2
SK-OV-3 = tested on: SK-OV-3
SN12C = tested on: SN12C
SNB-75 = tested on: SNB-75

| Structure (SMILES) | GI50 (786-0) | GI50 (A498) | GI50 (DU-145) | GI50 (HCC 2998) | GI50 (HCT-15) [µM] | GI50 (HL-60) | GI50 (HOP-62) | GI50 (K562) | GI50 (KM12) | GI50 (MDA-MB-231) | GI50 (MDA-MB-435) | GI50 (NCI-H522) | GI50 (OVCAR-4) | GI50 (OVCAR-5) | GI50 (PC-3) | GI50 (SK-MEL-28) | GI50 (SK-MEL-2) | GI50 (SK-OV-3) | GI50 (SN12C) | GI50 (SNB-75) |
| --- | --- | --- | --- | --- | --- | --- | --- | --- | --- | --- | --- | --- | --- | --- | --- | --- | --- | --- | --- | --- |
| CC[N+](CC)(CCNCC(N)=O)CC(N)=O | > 10 µM (inactive) | > 10 µM (inactive) | > 10 µM (inactive) | > 10 µM (inactive) | > 10 | > 10 µM (inactive) | > 10 µM (inactive) | > 10 µM (inactive) | > 10 µM (inactive) | > 10 µM (inactive) | > 10 µM (inactive) | > 10 µM (inactive) | > 10 µM (inactive) | > 10 µM (inactive) | > 10 µM (inactive) | > 10 µM (inactive) | > 10 µM (inactive) | > 10 µM (inactive) | > 10 µM (inactive) | > 10 µM (inactive) |
| Oc1ccc(Cl)cc1C1=NC(NCN2CCN(CNC3=NC(c4ccccc4)CC(c4cc(Cl)ccc4O)=N3)CC2)=NC(c2ccccc2)C1 (stereo unspecified) | 20.9 µM (inactive) | 47.8 µM (inactive) | 41.8 µM (inactive) | 52.6 µM (inactive) | 24.4 | 28.4 µM (inactive) | 42.2 µM (inactive) | 36.2 µM (inactive) | 37.1 µM (inactive) | > 100 µM (inactive) | 48.6 µM (inactive) | – | 28.9 µM (inactive) | 50.9 µM (inactive) | 39.7 µM (inactive) | > 100 µM (inactive) | 43 µM (inactive) | 66.7 µM (inactive) | 24.7 µM (inactive) | 35.6 µM (inactive) |
| Cc1c2c(c(C)n1-c1ccccc1)C(=O)N(CCCCN1CCN(c3ccccc3)CC1)C2=O | 4.97 µM (inactive) | 26.1 µM (inactive) | 19 µM (inactive) | 4.99 µM (inactive) | 7.74 | 5.5 µM (inactive) | 7.73 µM (inactive) | 4.22 µM (inactive) | 19.5 µM (inactive) | 10 µM (inactive) | 8.05 µM (inactive) | 12.9 µM (inactive) | 13 µM (inactive) | 49.3 µM (inactive) | 6.82 µM (inactive) | – | 22.3 µM (inactive) | 27.4 µM (inactive) | 13.1 µM (inactive) | 6.89 µM (inactive) |
| CC#CCOC(=O)c1ccccc1OC(C)=O | > 100 µM (inactive) | > 100 µM (inactive) | > 100 µM (inactive) | > 100 µM (inactive) | > 100 | 72.1 µM (inactive) | > 100 µM (inactive) | > 100 µM (inactive) | > 100 µM (inactive) | > 100 µM (inactive) | > 100 µM (inactive) | > 100 µM (inactive) | > 100 µM (inactive) | > 100 µM (inactive) | > 100 µM (inactive) | – | > 100 µM (inactive) | > 100 µM (inactive) | > 100 µM (inactive) | > 100 µM (inactive) |
| COc1ccc(N2C(=O)C3ON(C(C(N)=O)c4ccccc4)C(c4ccc(-c5ccccc5)cc4)C3C2=O)cc1 (stereo unspecified) | > 50 µM (inactive) | > 50 µM (inactive) | > 50 µM (inactive) | – | > 50 | > 50 µM (inactive) | > 50 µM (inactive) | > 50 µM (inactive) | > 50 µM (inactive) | > 50 µM (inactive) | > 50 µM (inactive) | 48.3 µM (inactive) | > 50 µM (inactive) | > 50 µM (inactive) | > 50 µM (inactive) | > 50 µM (inactive) | > 50 µM (inactive) | > 50 µM (inactive) | > 50 µM (inactive) | > 50 µM (inactive) |
| O=C1CSC(c2ccc([N+](=O)[O-])cc2)N1c1nc(-c2ccc3c(c2)CCCC3)cs1 (stereo unspecified) | > 100 µM (inactive) | > 100 µM (inactive) | > 100 µM (inactive) | > 100 µM (inactive) | > 100 | > 100 µM (inactive) | > 100 µM (inactive) | > 100 µM (inactive) | > 100 µM (inactive) | 70.1 µM (inactive) | 33.4 µM (inactive) | > 100 µM (inactive) | > 100 µM (inactive) | > 100 µM (inactive) | > 100 µM (inactive) | > 100 µM (inactive) | 39.5 µM (inactive) | – | > 100 µM (inactive) | 86.9 µM (inactive) |
| CCOC(=O)C1C(C(C)C)C2(C#N)C(=N)OC1(C)C2(C#N)C#N (stereo unspecified) | 54 µM (inactive) | > 100 µM (inactive) | > 100 µM (inactive) | > 100 µM (inactive) | 49.3 | 30 µM (inactive) | – | 30.8 µM (inactive) | > 100 µM (inactive) | > 100 µM (inactive) | 35.3 µM (inactive) | 26 µM (inactive) | – | > 100 µM (inactive) | > 100 µM (inactive) | > 100 µM (inactive) | 58.9 µM (inactive) | > 100 µM (inactive) | 65.8 µM (inactive) | 13.3 µM (inactive) |
| CCN(CC)C(=S)Nc1ccc(-c2cc3ccc(O)cc3oc2=O)cc1 | 39.4 µM (inactive) | 20.8 µM (inactive) | 29.8 µM (inactive) | 20.2 µM (inactive) | 19.7 | 3.76 µM (inactive) | – | 18.4 µM (inactive) | 28.8 µM (inactive) | 39.4 µM (inactive) | 28.6 µM (inactive) | 17 µM (inactive) | – | 26.2 µM (inactive) | 23.4 µM (inactive) | 25.9 µM (inactive) | 20.3 µM (inactive) | 44.1 µM (inactive) | 27 µM (inactive) | 16.4 µM (inactive) |
| CN1CCC/C1=C1/C(=O)N(c2ccccc2)N=C1c1ccc[nH]1 | > 100 µM (inactive) | > 100 µM (inactive) | > 100 µM (inactive) | > 100 µM (inactive) | > 100 | > 100 µM (inactive) | > 100 µM (inactive) | > 100 µM (inactive) | > 100 µM (inactive) | > 100 µM (inactive) | > 100 µM (inactive) | > 100 µM (inactive) | > 100 µM (inactive) | > 100 µM (inactive) | > 100 µM (inactive) | > 100 µM (inactive) | > 100 µM (inactive) | – | > 100 µM (inactive) | > 100 µM (inactive) |
| CCOC(=O)C1=CCOc2cc(N(C)C)ccc21 | > 100 µM (inactive) | > 100 µM (inactive) | > 100 µM (inactive) | > 100 µM (inactive) | > 100 | 31.8 µM (inactive) | > 100 µM (inactive) | 26.9 µM (inactive) | > 100 µM (inactive) | > 100 µM (inactive) | > 100 µM (inactive) | 45.3 µM (inactive) | – | – | > 100 µM (inactive) | > 100 µM (inactive) | 75 µM (inactive) | > 100 µM (inactive) | > 100 µM (inactive) | 43.4 µM (inactive) |
| C1=CN2C[n+]3cccc(OCc4ccccc4)c3N=C2C(OCc2ccccc2)=C1 | 15.3 µM (inactive) | 85.9 µM (inactive) | 6.92 µM (inactive) | 5.83 µM (inactive) | > 100 | 0.142 µM (active) | 17.6 µM (inactive) | < 0.01 µM (active) | – | 16.8 µM (inactive) | 14.4 µM (inactive) | 2.65 µM (inactive) | 4.81 µM (inactive) | 52 µM (inactive) | 26.5 µM (inactive) | 14.2 µM (inactive) | 11.7 µM (inactive) | > 100 µM (inactive) | 3.43 µM (inactive) | 20.1 µM (inactive) |
| [N-]=[N+]=Nc1cc(=O)n2c3c(cccc13)CCC2 | > 100 µM (inactive) | > 100 µM (inactive) | > 100 µM (inactive) | > 100 µM (inactive) | > 100 | > 100 µM (inactive) | > 100 µM (inactive) | > 100 µM (inactive) | > 100 µM (inactive) | > 100 µM (inactive) | > 100 µM (inactive) | > 100 µM (inactive) | > 100 µM (inactive) | – | > 100 µM (inactive) | > 100 µM (inactive) | – | – | > 100 µM (inactive) | > 100 µM (inactive) |
| O=C1N(CN2CCOCC2)CN(CN2CCOCC2)C(=O)N1Cc1ccc(CN2C(=O)N(CN3CCOCC3)CN(CN3CCOCC3)C2=O)cc1 | 28.8 µM (inactive) | > 100 µM (inactive) | 45.8 µM (inactive) | > 100 µM (inactive) | 31.2 | 60.1 µM (inactive) | > 100 µM (inactive) | – | 48.1 µM (inactive) | 57.9 µM (inactive) | 26.4 µM (inactive) | > 100 µM (inactive) | 35.7 µM (inactive) | > 100 µM (inactive) | 45.6 µM (inactive) | 31.3 µM (inactive) | 20.6 µM (inactive) | > 100 µM (inactive) | 59.8 µM (inactive) | 89.7 µM (inactive) |
| O=C(O)Cn1ccc(=O)c2cc([N+](=O)[O-])ccc21 | > 100 µM (inactive) | > 100 µM (inactive) | 38.1 µM (inactive) | > 100 µM (inactive) | > 100 | > 100 µM (inactive) | > 100 µM (inactive) | > 100 µM (inactive) | > 100 µM (inactive) | 19.4 µM (inactive) | > 100 µM (inactive) | > 100 µM (inactive) | – | > 100 µM (inactive) | > 100 µM (inactive) | > 100 µM (inactive) | > 100 µM (inactive) | > 100 µM (inactive) | > 100 µM (inactive) | > 100 µM (inactive) |
| C[C@@](O)(/C=C/[C@H]1CC=CC(=O)O1)[C@@H](C[C@@H](O)\C=C/C=C\C=C\CO)OP(=O)(O)O [FOSTRIECIN SODIUM] | 5.36 µM (inactive) | 23.9 µM (inactive) | 3.21 µM (inactive) | 4.28 µM (inactive) | 5.74 | 1.1 µM (active) | 4.9 µM (inactive) | 1.6 µM (inactive) | 6.08 µM (inactive) | 22.3 µM (inactive) | 1.28 µM (inactive) | 17.3 µM (inactive) | 5.27 µM (inactive) | 6.31 µM (inactive) | 4.48 µM (inactive) | 7.28 µM (inactive) | 11.2 µM (inactive) | 10.2 µM (inactive) | 9.33 µM (inactive) | – |
